Experimental data taken from US6313090A, “Methods for treating parasitic infection using thiopeptides” (The United States of America as represented by the …, priority 2000, dated 2001).
Read-outs that look alike come from different tables or passages of the source.

Test system: C. parvum GCH1 oocysts
Test: Intact C. parvum oocyst assay on MDBKF5D2 cell monolayers, immunofluorescence
Format: cell-based
Details: for inhibition at 800 µg/mL / inhibition at 100 µg/mL / inhibition at 200 µg/mL / inhibition at 400 µg/mL / inhibition at 1 µg/mL / inhibition at 10 µg/mL / inhibition at 0.1 µg/mL: Cryptosporidium parvum
Protocol: In vitro doses of drugs. Thiostrepton (Calbiochem) was dissolved in sterile complete Dulbecco's Modified Eagle Medium (DMEM) supplemented with dimethyl sulfoxide (DMSO) at 0.2% and tested at concentrations of 800, 400, 200, and 100, 10, 1 and 0.1 μg/ml.
(§1) Intact C. parvum oocyst asset 3.0×10^4 C. parvum GCH1 oocysts per well were incubated in the above-mentioned concentrations of drug at 37° C. (8% CO2) on confluent MDBKF5D2 cell monolayers in 96 well microtiter plates. The level of infection in each well was determined and analyzed by immunofluorescence assay at 48 hours, using C. parvum sporozoite rabbit anti-serum (0.1%) and fluorescein-conjugated goat anti-rabbit antibody (1.0%). Percent inhibition was calculated by subtracting the mean parasite/drug from the mean parasitelmedium, divided by the mean parasite/medium, all of which was multiplied by 100. The analysis was performed using MCID and an inverted microscope.
In vitro doses of drugs. Thiostrepton (Calbiochem) and Phavic (NTZ) were dissolved in sterile complete Dulbecco's Modified Eagle Medium (DMEM) supplemented with dimethyl sulfoxide (DMSO) at 0.2% and tested at concentrations of 800, 400, 200, and 100 μg/ml. NTZ was tested at concentrations of 100, 10, 1 and 0.1 μg/ml. Paromomycin (Sigma) was dissolved in DMEM and tested at concentrations of 2000, 1000, 500 and 250 μg/ml.
as §1, with “assay .” for “asset”, “plates. For some monolayers, the oocysts were incubated in DMEM on the cell monolayers for four hours, at which time the monolayers were washed and then drug was added to the wells.” for “plates.”, “parasite/medium,” for “parasitelmedium,”
In vitro doses of drugs. Thiostrepton (Calbiochem), Phavic (NTZ) were dissolved in sterile complete Dulbecco's Modified Eagle Medium (DMEM) supplemented with dimethyl sulfoxide (DMSO) at 0.2%. Thiostrepton was tested at a concentration of 800 μg/ml. NTZ was tested at a concentration of 10 μg/ml. Paromomycin was dissolved in DMEM and tested at 2000 μg/ml. Cell monolayers were infected and washed, followed by the addition of drug at time intervals of 0, 2, 4, 8 and 24 hours.
as §1, with “assay.” for “asset”, “analyze” for “analyzed”, “parasite/medium,” for “parasitelmedium,”

## C=C(NC(=O)C(=C)NC(=O)c1csc(C2=N[C@@H]3c4csc(n4)[C@H]4NC(=O)c5csc(n5)[C@H]([C@](C)(O)[C@@H](C)O)NC(=O)[C@H]5CSC(=N5)/C(=C/C)NC(=O)[C@H]([C@@H](C)O)NC(=O)c5csc(n5)[C@]3(CC2)NC(=O)[C@H](C)NC(=O)C(=C)NC(=O)[C@H](C)NC(=O)[C@H]([C@@H](C)CC)N[C@@H]2C=Cc3c([C@H](C)O)cc(nc3[C@H]2O)C(=O)O[C@@H]4C)n1)C(N)=O [Thiostrepton, thiostrepton]
0 h, read-out: Inhibition Percent, Table 5, 800 μg/ml, drug added at 0 hrs
  inhibition at 800 µg/mL: 91.2%
0 h, read-out: Inhibition Score, Table 5, 800 μg/ml, drug added at 0 hrs
  inhibition at 800 µg/mL: 91 to 100%
2 h, read-out: Inhibition Percent, Table 5, 800 μg/ml, drug added at 2 hrs
  inhibition at 800 µg/mL: 91.8%
2 h, read-out: Inhibition Score, Table 5, 800 μg/ml, drug added at 2 hrs
  inhibition at 800 µg/mL: 91 to 100%
4 h, read-out: Inhibition Percent, Table 4 Washed at 4 hours, 100 μg/ml
  inhibition at 100 µg/mL: 61%
4 h, read-out: Inhibition Percent, Table 4 Washed at 4 hours, 200 μg/ml
  inhibition at 200 µg/mL: 78.7%
4 h, read-out: Inhibition Percent, Table 4 Washed at 4 hours, 400 μg/ml
  inhibition at 400 µg/mL: 88.2%
4 h, read-out: Inhibition Percent, Table 4 Washed at 4 hours, 800 μg/ml
  inhibition at 800 µg/mL: 87.4%
4 h, read-out: Inhibition Percent, Table 5, 800 μg/ml, drug added at 4 hrs
  inhibition at 800 µg/mL: 84.5%
4 h, read-out: Inhibition Score, Table 4 Washed at 4 hours, 100 μg/ml
  inhibition at 100 µg/mL: 56 to 70%
4 h, read-out: Inhibition Score, Table 4 Washed at 4 hours, 200 μg/ml
  inhibition at 200 µg/mL: 71 to 90%
4 h, read-out: Inhibition Score, Table 4 Washed at 4 hours, 400 μg/ml
  inhibition at 400 µg/mL: 71 to 90%
4 h, read-out: Inhibition Score, Table 4 Washed at 4 hours, 800 μg/ml
  inhibition at 800 µg/mL: 71 to 90%
4 h, read-out: Inhibition Score, Table 5, 800 μg/ml, drug added at 4 hrs
  inhibition at 800 µg/mL: 71 to 90%
8 h, read-out: Inhibition Percent, Table 5, 800 μg/ml, drug added at 8 hrs
  inhibition at 800 µg/mL: 84.9%
8 h, read-out: Inhibition Score, Table 5, 800 μg/ml, drug added at 8 hrs
  inhibition at 800 µg/mL: 71 to 90%
24 h, read-out: Inhibition Percent, Table 5, 800 μg/ml, drug added at 24 hrs
  inhibition at 800 µg/mL: 75%
24 h, read-out: Inhibition Score, Table 5, 800 μg/ml, drug added at 24 hrs
  inhibition at 800 µg/mL: 71 to 90%
read-out: Inhibition Percent, Table 1, 1 μg/ml
  inhibition at 1 µg/mL: < 0%
read-out: Inhibition Percent, Table 1, 10 μg/ml
  inhibition at 10 µg/mL: 12.4%
read-out: Inhibition Percent, Table 1, 100 μg/ml
  inhibition at 100 µg/mL: 29.4%
read-out: Inhibition Percent, Table 1, .1 μg/ml
  inhibition at 0.1 µg/mL: < 0%
read-out: Inhibition Percent, Table 2, 100 μg/ml
  inhibition at 100 µg/mL: 22.7%
read-out: Inhibition Percent, Table 2, 200 μg/ml
  inhibition at 200 µg/mL: 51.8%
read-out: Inhibition Percent, Table 2, 400 μg/ml
  inhibition at 400 µg/mL: 72.6%
read-out: Inhibition Percent, Table 2, 800 μg/ml
  inhibition at 800 µg/mL: 87.8%
read-out: Inhibition Percent, Table 3 Unwashed, 100 μg/ml
  inhibition at 100 µg/mL: 35.4%
read-out: Inhibition Percent, Table 3 Unwashed, 200 μg/ml
  inhibition at 200 µg/mL: 68.2%
read-out: Inhibition Percent, Table 3 Unwashed, 400 μg/ml
  inhibition at 400 µg/mL: 87.4%
read-out: Inhibition Percent, Table 3 Unwashed, 800 μg/ml
  inhibition at 800 µg/mL: 91.4%
read-out: Inhibition Percent, Table 6, 100 μg/ml
  inhibition at 100 µg/mL: 36.5%
read-out: Inhibition Percent, Table 6, 200 μg/ml
  inhibition at 200 µg/mL: 65.7%
read-out: Inhibition Percent, Table 6, 400 μg/ml
  inhibition at 400 µg/mL: 79%
read-out: Inhibition Percent, Table 6, 800 μg/ml
  inhibition at 800 µg/mL: 83.7%
read-out: Inhibition Score, Table 1, 1 μg/ml
  inhibition at 1 µg/mL: 0 to 30%
read-out: Inhibition Score, Table 1, 10 μg/ml
  inhibition at 10 µg/mL: 0 to 30%
read-out: Inhibition Score, Table 1, 100 μg/ml
  inhibition at 100 µg/mL: 0 to 30%
read-out: Inhibition Score, Table 1, .1 μg/ml
  inhibition at 0.1 µg/mL: 0 to 30%
read-out: Inhibition Score, Table 2, 100 μg/ml
  inhibition at 100 µg/mL: 0 to 30%
read-out: Inhibition Score, Table 2, 200 μg/ml
  inhibition at 200 µg/mL: 31 to 55%
read-out: Inhibition Score, Table 2, 400 μg/ml
  inhibition at 400 µg/mL: 71 to 90%
read-out: Inhibition Score, Table 2, 800 μg/ml
  inhibition at 800 µg/mL: 71 to 90%
read-out: Inhibition Score, Table 3 Unwashed, 100 μg/ml
  inhibition at 100 µg/mL: 31 to 55%
read-out: Inhibition Score, Table 3 Unwashed, 200 μg/ml
  inhibition at 200 µg/mL: 56 to 70%
read-out: Inhibition Score, Table 3 Unwashed, 400 μg/ml
  inhibition at 400 µg/mL: 71 to 90%
read-out: Inhibition Score, Table 3 Unwashed, 800 μg/ml
  inhibition at 800 µg/mL: 91 to 100%
read-out: Inhibition Score, Table 6, 100 μg/ml
  inhibition at 100 µg/mL: 31 to 55%
read-out: Inhibition Score, Table 6, 200 μg/ml
  inhibition at 200 µg/mL: 56 to 70%
read-out: Inhibition Score, Table 6, 400 μg/ml
  inhibition at 400 µg/mL: 71 to 90%
read-out: Inhibition Score, Table 6, 800 μg/ml
  inhibition at 800 µg/mL: 71 to 90%
Table 1, 1 μg/ml
  Parasite Count: 1193.19
Table 1, 10 μg/ml
  Parasite Count: 909.25
Table 1, 100 μg/ml
  Parasite Count: 732.31
Table 1, .1 μg/ml
  Parasite Count: 1052.13
Table 2, 100 μg/ml
  Parasite Count: 943.31
Table 2, 200 μg/ml
  Parasite Count: 587.81
Table 2, 400 μg/ml
  Parasite Count: 334.06
Table 2, 800 μg/ml
  Parasite Count: 149.25
Table 3 Unwashed, 100 μg/ml
  Parasite Count: 795.63
Table 3 Unwashed, 200 μg/ml
  Parasite Count: 391.19
Table 3 Unwashed, 400 μg/ml
  Parasite Count: 154.88
Table 3 Unwashed, 800 μg/ml
  Parasite Count: 106.06
Table 4 Washed at 4 hours, 100 μg/ml
  Parasite Count: 543.88
Table 4 Washed at 4 hours, 200 μg/ml
  Parasite Count: 297.19
Table 4 Washed at 4 hours, 400 μg/ml
  Parasite Count: 164.31
Table 4 Washed at 4 hours, 800 μg/ml
  Parasite Count: 176.31
Table 5, 800 μg/ml, drug added at 0 hrs
  Parasite Count: 112.44
Table 5, 800 μg/ml, drug added at 2 hrs
  Parasite Count: 104.19
Table 5, 800 μg/ml, drug added at 4 hrs
  Parasite Count: 196.81
Table 5, 800 μg/ml, drug added at 8 hrs
  Parasite Count: 192.56
Table 5, 800 μg/ml, drug added at 24 hrs
  Parasite Count: 318.25
Table 6, 100 μg/ml
  Parasite Count: 871.25
Table 6, 200 μg/ml
  Parasite Count: 470.69
Table 6, 400 μg/ml
  Parasite Count: 288.13
Table 6, 800 μg/ml
  Parasite Count: 223.13
Concentrations of 200 and above, Tables 1 and 2
  activity against C. parvum in vitro: good activity
In vitro, summary statement
  effectiveness compared with PRM: more effective than PRM at about one-fifth the dose
Intracellular stages only
  activity when drug is added 24 hours after infection: still highly inhibitory
